Test results as given in patent US11590139B2, “Substituted aminopurine compounds, compositions thereof, and methods of treatment therewith” (Signal Pharmaceuticals, LLC, priority 2014, dated 2023).
Like-named read-outs stand apart in the source and are kept apart here.

Test system: Lox-IMVI melanoma cell line
Assay: Lox-IMVI anti-proliferative assay (growth inhibition, Cell Titer-Glo)
Type: cell-based, human
Details: Homo sapiens
Outline: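 RPMI/10% FBS; cmpd 0.5 nM–10 μM, 3-fold ×10, duplicate, 0.2% DMSO final; 72 h, 37 °C, 5% CO2. ATP-luminescence readout at t0 and 72 h. IC50 = 50% of DMSO control, 4-parameter logistic fit.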

[1] = Lox-IMVI anti-proliferative assay, IC50 activity level, read-out: Activity
[2] = IC50 activity level in the cell-based Lox-IMVI anti-proliferative assay, read-out: Activity
[3] = Lox-IMVI melanoma cell line, anti-proliferative assay, read-out: Activity (IC50 activity level)

| IC50 [2] [nM] | SMILES | further results |
| --- | --- | --- |
|  | N#Cc1cc(Cl)c(Nc2nc3cnc(N[C@H](CO)C(F)(F)F)nc3n2[C@H]2CC[C@@H](C(N)=O)CC2)c(Cl)c1 [Example 472, (1S,4s)-4-(8-(2,6-dichloro-4-cyanophenylamino)-2-((R)-1,1,1-trifluoro-3-hydroxypropan-2-ylamino)-9H-purin-9-yl)cyclohexanecarboxamide] | IC50 [1]: > 1000 nM |
| > 1000 | CC1(C)CC[C@@H](Nc2ncc3nc(Nc4c(F)cc(Cl)cc4Cl)n([C@H]4CC[C@@H](C(N)=O)CC4)c3n2)C[C@H]1O [Example 389, (1S,4s)-4-(8-(2,4-dichloro-6-fluorophenylamino)-2-((1R,3R)-3-hydroxy-4,4-dimethylcyclohexylamino)-9H-purin-9-yl)cyclohexanecarboxamide] |  |
|  | C[C@]1(C(N)=O)CC[C@@H](n2c(Nc3c(Cl)cc(C#N)cc3Cl)nc3cnc(N[C@H]4CC[C@H](O)C4)nc32)CC1 [Example 650, (1R,4s)-4-(8-(2,6-dichloro-4-cyanophenylamino)-2-((1S,3S)-3-hydroxycyclopentylamino)-9H-purin-9-yl)-1-methylcyclohexanecarboxamide] | IC50 [3]: 250 to 500 nM |
| < 250 | N#Cc1cc(Cl)c(Nc2nc3cnc(NC4CCCC4)nc3n2[C@H]2CC[C@@H](C(N)=O)CC2)c(Cl)c1 [Example 367, (1s,4s)-4-(2-(cyclopentylamino)-8-(2,6-dichloro-4-cyanophenylamino)-9H-purin-9-yl)cyclohexanecarboxamide] |  |
| > 1000 | C[C@@H](CO)Nc1ncc2nc(Nc3c(F)cc(C#N)cc3F)n([C@H]3CC[C@@H](C(N)=O)CC3)c2n1 [Example 394, (1R,4s)-4-(8-(4-cyano-2,6-difluorophenylamino)-2-((S)-1-hydroxypropan-2-ylamino)-9H-purin-9-yl)cyclohexanecarboxamide] |  |
|  | C[C@]1(C(N)=O)CC[C@@H](n2c(Nc3c(Cl)cc(Cl)cc3Cl)nc3cnc(N[C@H]4CCC[C@@H](O)C4)nc32)CC1 [Example 627, (1R,4s)-4-(2-((1S,3R)-3-hydroxycyclohexylamino)-8-(2,4,6-trichlorophenylamino)-9H-purin-9-yl)-1-methylcyclohexanecarboxamide] | IC50 [3]: < 250 nM |
| 500 to 1000 | NC(=O)[C@H]1CC[C@@H](n2c(Nc3c(F)cc(Cl)cc3F)nc3cnc(N[C@@H]4CCC[C@H](O)C4)nc32)CC1 [Example 352, (1S,4s)-4-(8-(4-chloro-2,6-difluorophenylamino)-2-((1R,3S)-3-hydroxycyclohexylamino)-9H-purin-9-yl)cyclohexanecarboxamide] |  |
|  | Cc1ccc(S(=O)(=O)N2CCC[C@@H](Nc3ncc4nc(Nc5c(F)cc(Cl)cc5Cl)n([C@H]5CC[C@@H](C(N)=O)CC5)c4n3)C2)cc1 [Example 793, (1S,4s)-4-(8-(2,4-dichloro-6-fluorophenylamino)-2-((R)-1-tosylpiperidin-3-ylamino)-9H-purin-9-yl)cyclohexanecarboxamide] | IC50 [3]: > 1000 nM |
| > 1000 | NC(=O)[C@H]1CC[C@@H](n2c(Nc3ccc(F)c(F)c3F)nc3cnc(N[C@@H]4CC[C@@H](O)C4)nc32)CC1 [Example 220, (1S,4s)-4-(2-((1R,3R)-3-hydroxycyclopentylamino)-8-(2,3,4-trifluorophenylamino)-9H-purin-9-yl)cyclohexanecarboxamide] |  |
| 250 to 500 | NC(=O)[C@H]1CC[C@@H](n2c(Nc3c(Cl)cc(Cl)cc3Cl)nc3cnc(N[C@@H]4CC[C@@H](O)C4)nc32)CC1 [Example 212, (1S,4s)-4-(2-((1R,3R)-3-hydroxycyclopentylamino)-8-(2,4,6-trichlorophenylamino)-9H-purin-9-yl)cyclohexanecarboxamide] |  |
|  | N#Cc1cc(Cl)c(Nc2nc3cnc(NC4CC(F)(F)C4)nc3n2[C@H]2CC[C@@H](C(N)=O)CC2)c(Cl)c1 [Example 399, (1s,4s)-4-(8-(2,6-dichloro-4-cyanophenylamino)-2-(3,3-difluorocyclobutylamino)-9H-purin-9-yl)cyclohexanecarboxamide] | IC50 [1]: 250 to 500 nM |
